Measurements: US6737383B1, “Herbicidal oxadiazolidines” (priority 1999, dated 2004)

What was measured:
[1] = system: morningglory; assay: Test B pre/postemergence morningglory; type: in vivo, Ipomoea hederacea
Outline: (§1)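 Test chemicals in a non-phytotoxic solvent mixture with surfactant were sprayed preemergence onto planted seeds and postemergence onto plants 2 to 18 cm tall (1- to 4-leaf stage). After twelve to sixteen days in a greenhouse, injury was visually rated against untreated controls from 0 (no effect) to 10 (complete control).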

[2] = system: corn; assay: Test B pre/postemergence corn; type: in vivo, Zea mays
Outline: as §1

[3] = system: rape; assay: Test B pre/postemergence rape; type: in vivo, Brassica napus
Outline: as §1

[4] = system: bamyardgrass; assay: Test B flood test barnyardgrass; type: in vivo, Echinochloa crus-galli
Outline: (§2)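 Each value is a visual injury score relative to controls, with 10 meaning complete control and 0 no effect. Evaluation took place twelve to sixteen days after the 2-leaf-stage plants were treated and kept in the greenhouse.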

[5] = system: giant foxtail; assay: Test B pre/postemergence giant foxtail; type: in vivo, Setaria faberii
Outline: as §1

[6] = system: wild oat; assay: Test B pre/postemergence wild oat; type: in vivo, Avena fatua
Outline: as §1

[7] = system: pigweed; assay: Test B pre/postemergence pigweed; type: in vivo, Amaranthus retroflexus
Outline: as §1

[8] = system: surinam grass; assay: Test B pre/postemergence surinam grass; type: in vivo, Brachiaria decumbens
Outline: as §1

[9] = system: purple nutsedge; assay: Test B pre/postemergence purple nutsedge; type: in vivo, Cyperus rotundus
Outline: as §1

[10] = system: blackgrass; assay: Test B pre/postemergence blackgrass; type: in vivo, Alopecurus myosuroides
Outline: as §1

[11] = system: velvetleaf; assay: Test B pre/postemergence velvetleaf; type: in vivo, Abutilon theophrasti
Outline: as §1

[12] = system: crabgrass; assay: Test B pre/postemergence crabgrass; type: in vivo, Digitaria sanguinalis
Outline: as §1

[13] = system: cocklebur; assay: Test B pre/postemergence cocklebur; type: in vivo, Xanthium strumarium
Outline: as §1

[14] = system: sugar beet; assay: Test B pre/postemergence sugar beet; type: in vivo, Beta vulgaris
Outline: as §1

[15] = system: soybean; assay: Test B pre/postemergence soybean; type: in vivo, Glycine max
Outline: as §1

[16] = system: smallflower flatsedge; assay: Test B flood test smallflower flatsedge; type: in vivo, Cyperus difformis
Outline: as §2

[17] = Postemergence, Rate 62 g/ha, scale 0 to 10, 0 is no effect, 10 is complete control
[18] = Postemergence, Rate 250 g/ha, scale 0 to 10, 0 no effect, 10 complete control
[19] = Preemergence, Rate 62 g/ha, scale 0 to 10, 0 is no effect, 10 is complete control
[20] = Preemergence, Rate 125 g/ha, scale 0 to 10 (0 no effect, 10 complete control)
[21] = Preemergence, Rate 250 g/ha, scale of 0 to 10 where 0 is no effect and 10 is complete control
[22] = Preemergence, Rate 500 g/ha, scale 0 (no effect) to 10 (complete control)
[23] = Rate 125 g/ha, Postemergence, scale 0 to 10, 0 no effect, 10 complete control
[24] = Rate 500 g/ha, Postemergence, scale 0 to 10, 0 no effect, 10 complete control
[25] = Rate 125 g/ha, Postemergence section (flood test species), scale 0 to 10, 0 no effect, 10 complete control
[26] = Rate 500 g/ha, listed under Postemergence (flood test species), scale 0 to 10, 0 no effect, 10 complete control
[27] = flood test, listed under Postemergence, Rate 250 g/ha, scale 0 to 10, 0 no effect, 10 complete control

Cc1ccccc1-n1c(=O)on(C(=O)N(c2ccc(F)c(F)c2)C(C)C)c1=O [Compound 48]
Morningglory plant response rating [1, 17]: 0
Morningglory plant response rating [1, 18]: 0
Plant response rating, Morningglory [1, 19]: 0
Plant response rating, Morningglory [1, 20]: 0
Plant response rating, Morningglory [1, 21]: 0
Morningglory plant response rating [1, 22]: 0
Morningglory plant response rating [1, 23]: 0
Morningglory plant response rating [1, 24]: 1
Corn plant response rating [2, 17]: 0
Corn plant response rating [2, 18]: 0
Plant response rating, Corn [2, 19]: 0
Plant response rating, Corn [2, 20]: 0
Plant response rating, Corn [2, 21]: 0
Corn plant response rating [2, 22]: 0
Corn plant response rating [2, 23]: 0
Corn plant response rating [2, 24]: 0
Rape plant response rating [3, 17]: 0
Rape plant response rating [3, 18]: 0
Plant response rating, Rape [3, 19]: 0
Plant response rating, Rape [3, 20]: 0
Plant response rating, Rape [3, 21]: 0
Rape plant response rating [3, 22]: 0
Rape plant response rating [3, 23]: 0
Rape plant response rating [3, 24]: 0
Barnyardgrass plant response rating [4, 17]: 0
Barnyardgrass plant response rating [4, 25]: 0
Barnyardgrass plant response rating [4, 26]: 0
Barnyardgrass plant response rating [4, 27]: 0
Giant foxtail plant response rating [5, 17]: 0
Giant foxtail plant response rating [5, 18]: 2
Plant response rating, Giant foxtail [5, 19]: 6
Plant response rating, Giant foxtail [5, 20]: 9
Plant response rating, Giant foxtail [5, 21]: 10
Giant foxtail plant response rating [5, 22]: 10
Giant foxtail plant response rating [5, 23]: 0
Giant foxtail plant response rating [5, 24]: 3
Wild oats plant response rating [6, 17]: 0
Wild oats plant response rating [6, 18]: 0
Plant response rating, Wild oats [6, 20]: 0
Plant response rating, Wild oats [6, 21]: 2
Wild oats plant response rating [6, 22]: 2
Wild oats plant response rating [6, 23]: 0
Wild oats plant response rating [6, 24]: 0
Redroot pigweed plant response rating [7, 17]: 0
Redroot pigweed plant response rating [7, 18]: 0
Plant response rating, Redroot pigweed [7, 19]: 0
Plant response rating, Redroot pigweed [7, 20]: 0
Plant response rating, Redroot pigweed [7, 21]: 0
Redroot pigweed plant response rating [7, 22]: 0
Redroot pigweed plant response rating [7, 23]: 0
Redroot pigweed plant response rating [7, 24]: 0
B. signalgrass plant response rating [8, 17]: 0
B. signalgrass plant response rating [8, 18]: 0
Plant response rating, B. signalgrass [8, 19]: 0
Plant response rating, B. signalgrass [8, 20]: 0
Plant response rating, B. signalgrass [8, 21]: 0
B. signalgrass plant response rating [8, 22]: 0
B. signalgrass plant response rating [8, 23]: 0
B. signalgrass plant response rating ([8]; Rate 500 g/ha, Postemergence, scale of 0 to 10 where 0 is no effect and 10 is complete control): 0
Nutsedge plant response rating [9, 17]: 0
Nutsedge plant response rating [9, 18]: 0
Plant response rating, Nutsedge [9, 19]: 0
Plant response rating, Nutsedge [9, 20]: 0
Plant response rating, Nutsedge [9, 21]: 0
Nutsedge plant response rating [9, 22]: 0
Nutsedge plant response rating [9, 23]: 0
Nutsedge plant response rating [9, 24]: 0
Blackgrass plant response rating [10, 17]: 0
Blackgrass plant response rating [10, 18]: 0
Plant response rating, Blackgrass [10, 19]: 0
Plant response rating, Blackgrass [10, 20]: 0
Plant response rating, Blackgrass [10, 21]: 2
Blackgrass plant response rating [10, 22]: 2
Blackgrass plant response rating [10, 23]: 0
Blackgrass plant response rating [10, 24]: 0
Velvetleaf plant response rating [11, 17]: 0
Velvetleaf plant response rating [11, 18]: 0
Plant response rating, Velvetleaf [11, 19]: 0
Plant response rating, Velvetleaf [11, 20]: 0
Plant response rating, Velvetleaf [11, 21]: 0
Velvetleaf plant response rating [11, 22]: 0
Velvetleaf plant response rating [11, 23]: 0
Velvetleaf plant response rating [11, 24]: 0
Crabgrass plant response rating [12, 17]: 0
Crabgrass plant response rating [12, 18]: 3
Plant response rating, Crabgrass [12, 19]: 1
Plant response rating, Crabgrass [12, 20]: 6
Plant response rating, Crabgrass [12, 21]: 7
Crabgrass plant response rating [12, 22]: 7
Crabgrass plant response rating [12, 23]: 1
Crabgrass plant response rating [12, 24]: 8
Cocklebur plant response rating [13, 17]: 0
Cocklebur plant response rating [13, 18]: 0
Plant response rating, Cocklebur [13, 19]: 0
Plant response rating, Cocklebur [13, 20]: 0
Plant response rating, Cocklebur [13, 21]: 0
Cocklebur plant response rating [13, 22]: 0
Cocklebur plant response rating [13, 23]: 0
Cocklebur plant response rating [13, 24]: 2
Sugarbeets plant response rating [14, 17]: 0
Sugarbeets plant response rating [14, 18]: 0
Plant response rating, Sugarbeets [14, 19]: 0
Plant response rating, Sugarbeets [14, 20]: 0
Plant response rating, Sugarbeets [14, 21]: 0
Sugarbeets plant response rating [14, 22]: 0
Sugarbeets plant response rating [14, 23]: 0
Sugarbeets plant response rating [14, 24]: 0
Soybean plant response rating [15, 17]: 1
Soybean plant response rating [15, 18]: 1
Plant response rating, Soybean [15, 19]: 0
Plant response rating, Soybean [15, 20]: 0
Plant response rating, Soybean [15, 21]: 0
Soybean plant response rating [15, 22]: 0
Soybean plant response rating [15, 23]: 1
Soybean plant response rating [15, 24]: 1
S. Flatsedge plant response rating [16, 17]: 0
S. Flatsedge plant response rating [16, 25]: 0
S. Flatsedge plant response rating [16, 26]: 0
S. Flatsedge plant response rating [16, 27]: 0
